How the values were obtained:
[1] = test system: carrageenan-induced oedema of the rat paw; test: Inhibition of carrageenan-induced oedema of the rat paw after i.m. depot administration; assay type: in vivo, rat (male, Bor:WISW (SPF-Cpb))
Procedure: The antioedemic and analgesic effect of the test substances after i.m. administration of an appropriate depot formulation was determined using the carrageenan-induced oedema of the rat paw or using the Randall-Selittotest [Arch. int. Pharmacodyn.
The tests were carried out with male rats [strain: Bor:WISW (SPF-Cpb), weight about 200 g]. The animals receive a single i.m. administration of a depot product, and the antiinflammatory effect was checked on subsequent days by inducing oedema with carrageenan.
The paw volumes were measured by the method of F. Kemper and G. Ameln [Z. ges. exp.
Various doses were administered in a constant volume of 0.03 ml administered per rat (see Table).

[2] = humans; p.o. versus i.m. in aqueous solution; cited from earlier work

CN1C(C(=O)Nc2ccccn2)=C(O)c2ccccc2S1(=O)=O [compound 22, 4-Hydroxy-2-methyl-N--2-pyridinyl-2H--1,2-benzothiazine-3-carboxamide 1,1-dioxide]
% inhibition of oedema, 2nd day after inj. ([1]; 0.6 mg/kg, solution): 33.2%
% inhibition of oedema, 2nd day after inj. ([1]; 0.6 mg/kg, suspension): 33%
% inhibition of oedema, 4th day after inj. ([1]; 0.6 mg/kg, solution): 39.3%
% inhibition of oedema, 4th day after inj. ([1]; 0.6 mg/kg, suspension): 39%

CC(C)Cc1ccc(C(C)C(=O)O)cc1 (centres unmarked) [compound 11, 2-(p-Isobutylphenyl)-propionic acid]
% inhibition of oedema, 2nd day after inj. ([1]; 13 mg/kg, suspension): 40%
% inhibition of oedema, 4th day after inj. ([1]; 13 mg/kg, suspension): 45%

COc1ccc2cc([C@H](C)C(=O)O)ccc2c1 [compound 10, D-2-(6-Methoxy-2-naphthyl)propionic acid]
% inhibition of oedema, 2nd day after inj. ([1]; 2.5 mg/kg, suspension): 42.8%
% inhibition of oedema, 4th day after inj. ([1]; 2.5 mg/kg, suspension): 22.3%

CN1C(C(=O)Nc2nccs2)=C(O)c2ccccc2S1(=O)=O [compound 21, 4-Hydroxy-2-methyl-N--2-thiazolyl-2H--1,2-benzothiazine-3-carboxamide 1,1-dioxide]
% inhibition of oedema, 2nd day after inj. ([1]; 15 mg/kg, suspension): 42.9%
% inhibition of oedema, 4th day after inj. ([1]; 15 mg/kg, suspension): 30.4%

CC(C(=O)O)c1cccc(C(=O)c2ccccc2)c1 (centres unmarked) [compound 13, 2-(m-Benzoylphenyl)-propionic acid]
maximum level in the plasma [2]: nor do the maximum level in the plasma, or the plasma and renal clearance differ

O=C(O)c1cc(-c2ccc(F)cc2F)ccc1O [compound 3, 2',4'-Difluoro-4-hydroxy-3-biphenyl-carboxylic acid]
% inhibition of oedema, 2nd day after inj. ([1]; 5 mg/kg, suspension): 26%
% inhibition of oedema, 4th day after inj. ([1]; 5 mg/kg, suspension): 13%

COc1ccc2c(c1)c(CC(=O)O)c(C)n2C(=O)c1ccc(Cl)cc1 [compound 18, 1-(p-Chlorobenzoyl)-5-methoxy-2-methylindole-3-acetic acid]
% inhibition of oedema, 2nd day after inj. ([1]; 10.0 mg/kg, solution): 58.2%
% inhibition of oedema, 2nd day after inj. ([1]; 10.0 mg/kg, suspension): 58.2%
% inhibition of oedema, 4th day after inj. ([1]; 10.0 mg/kg, solution): 29.5%
% inhibition of oedema, 4th day after inj. ([1]; 10.0 mg/kg, suspension): 29.5%

Source: patent US4614741A, “Depot antiinflammatory agents” (priority 1983, dated 1986)
